Data on 21 compounds can be found in article PMC3637257, “A Novel Anti-Tumor Inhibitor Identified by Virtual Screen with PLK1 Structure and Zebrafish Assay” (PLoS ONE, 2013).

This test concerns PC-3. Kind of test: cells. The arrangement: MTS cell viability / proliferation assay of PC-3 prostate cancer cells. The note with it: Homo sapiens, PC-3, 72 h; read-out: IC50 inhibiting PC-3. How it is done:
Fifteen human cancer cell lines were tested in our studies. Initial screens used human lung cancer cell A549, human epithelial cervical cancer Hela cells, human prostate cancer PC-3 cells, human epidermoid cancer KB-31 cells, human breast cancer MDA-MB-231 cells, and human pancreatic cancer HPAF. These cell lines were obtained commercially from ATCC. The first six cell cultures were maintained in 75 cm^2 cell culture flasks in which the cells were passaged at 70–80% confluence every 2–3 days. All cancer cells were cultured in RPMI 1640 containing 10% fetal calf serum, 100 U/mL penicillin, 100 µg/mL streptomycin, and 2 mM L-lutamine (complete RPMI medium). All cancer cells were plated at 1×10^4 cells per well in a 96 well plate. Drugs of different concentrations were then added. MTS assays (CellTiter 96® AQueous One Solution Cell Proliferation Assay, Promega) were performed after 72 h post treatment to determine the cell viability following drug administration.
Usually IC50 stands for the concentration that gives 50% inhibition. Consider `COc1ccc2nc(SCC(=O)Nc3ccccc3OC)c(C#N)cc2c1` [5a], for which the half-maximal inhibitory concentration (IC50) is 40 µM. With `COc1ccc2nc(SCC(=O)Nc3cc(Cl)ccc3OC)c(C#N)cc2c1` [5b], the half-inhibitory concentration (IC50) came out at 10 µM.

Take `COc1ccc(OC)c(NC(=O)CSc2nc3ccc(OC)cc3cc2C#N)c1` [5c]: the 50% inhibitory concentration (IC50) was 10 µM. `COc1ccc2nc(SCC(=O)Nc3ccccc3Br)c(C#N)cc2c1` [5d]: the IC50 came to 10 µM.

Take `COc1ccc2nc(SCC(=O)Nc3ccccc3Cl)c(C#N)cc2c1` [5e]: the concentration for half-maximal inhibition (IC50) is 10 µM. The value for `COc1ccc2nc(SCC(=O)Nc3ccccn3)c(C#N)cc2c1` [5f] was 10 µM; that for `COc1ccc2nc(SCC(=O)Nc3ccc(Cl)cn3)c(C#N)cc2c1` [5g] was 10 µM. For `COc1ccc2nc(SCC(=O)Nc3cnccn3)c(C#N)cc2c1` [5h], the IC50 was 10 µM. Turning to `COc1ccc2nc(SCC(=O)Nc3cc(C(F)(F)F)ccc3C(F)(F)F)c(C#N)cc2c1` [5i], the IC50 came out at 20 µM. With `COc1ccc2nc(SCC(=O)Nc3nccs3)c(C#N)cc2c1` [5j] the figure was 10 µM.

Turning to `COc1ccc2nc(SCC(=O)Nc3ccccc3O)c(C#N)cc2c1` [5k], the 50% inhibitory concentration (IC50) worked out at 30 µM.

For `COc1ccc2nc(SCC(=O)Nc3ccc(Cl)cc3Cl)c(C#N)cc2c1` [5l], the IC50 came out at 10 µM.

Consider `CCc1cccc(CC)c1NC(=O)CSc1nc2ccc(OC)cc2cc1C#N` [5m], for which the IC50 came to 20 µM.

For `COc1ccc2nc(SCC(=O)Nc3ccc(N(C)C)cc3)c(C#N)cc2c1` [5n], the concentration for half-maximal inhibition (IC50) worked out at 10 µM. Consider `COc1ccc(C)cc1NC(=O)CSc1nc2ccc(Cl)cc2cc1C#N` [5o], for which the IC50 is 20 µM. For the compound `N#Cc1cc2cc(Cl)ccc2nc1SCC(=O)Nc1ccccc1C(F)(F)F` [5p], the concentration for half-maximal inhibition (IC50) was 10 µM. For the compound `COc1ccc(C)cc1NC(=O)CSc1nc2ccc(C)cc2cc1C#N` [5q], the half-inhibitory concentration (IC50) is 20 µM.

With `Cc1ccc2nc(SCC(=O)Nc3ccccc3C(F)(F)F)c(C#N)cc2c1` [5r], the half-maximal inhibitory concentration (IC50) was 40 µM. Consider `COc1ccc(C)cc1NC(=O)CSc1nc2ccc(Br)cc2cc1C#N` [5s], for which the half-maximal inhibitory concentration (IC50) turned out to be 40 µM.

For the compound `N#Cc1cc2cc(Br)ccc2nc1SCC(=O)Nc1ccccc1C(F)(F)F` [5t], the IC50 turned out to be 50 µM. As for `COc1ccc2nc(SCC(=O)Nc3cc(C)ccc3OC)c(C#N)cc2c1` [I2], the IC50 turned out to be 1 µM.
